Data as given in patent US9556217B2, “Amphiphilic compounds” (WISCONSIN ALUMNI RESEARCH FOUNDATION, priority 2012, dated 2017).

Molecular target: T1, cytidine-5′-monophosphate-sialic acid transporter (CMP-Sia) (Mus musculus, UniProt Q61420)
T1 construct: GFP-His (C, cleaved yes); made in house; host or cells: Saccharomyces cerevisiae
T1 sequence (Q61420 1-336): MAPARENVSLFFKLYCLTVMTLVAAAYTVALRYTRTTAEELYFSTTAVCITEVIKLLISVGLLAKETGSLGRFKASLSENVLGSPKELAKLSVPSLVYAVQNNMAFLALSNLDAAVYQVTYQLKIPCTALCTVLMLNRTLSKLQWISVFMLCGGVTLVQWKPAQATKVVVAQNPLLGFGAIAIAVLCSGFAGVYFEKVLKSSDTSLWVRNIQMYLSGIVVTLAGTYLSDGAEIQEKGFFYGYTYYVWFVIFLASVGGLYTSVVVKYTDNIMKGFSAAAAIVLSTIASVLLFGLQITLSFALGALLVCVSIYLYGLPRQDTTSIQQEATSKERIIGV
Test: CMP-Sia gel filtration integrity
Parameters: species or system murine
Conditions: detergent at 0.042 wt %; 2 hours at 30° C.
Experimental: The promising behavior manifested by GDN in terms of the stability of bR and the R. capsulatus superassembly prompted the examining this amphiphile with another membrane protein, the murine cytidine-5′-monophosphate-sialic acid transporter (CMP-Sia) (Newstead et al., Proc. Natl. Acad. Sci. USA 2007, 104, 13936-13941). The protein was initially extracted from S. cereviseae membranes with 1% DDM and isolated in buffer containing 0.03% DDM. The final purified protein (6 mg/mL) was diluted 1:100 into solutions containing DDM or GDN at 0.042 wt % (which corresponds to CMC+0.033 wt % for DDM and CMC+0.04 wt % for GDN). The DDM- and GDN-solubilized CMP-Sia were analyzed by gel filtration before and after incubation for 2 hours at 30° C. (FIG. 5a, b).
Protein integrity was assessed using the procedure reported by Chae and coworkers (Nat. Methods 2010, 7, 1003-1008) using CMP-Sia instead of SQR.
CMP-Sia and GlpG were expressed as fusion proteins with a C-terminal GFP-His tag in Saccharomyces cerevisiae and Escherichia coli respectively. All steps were carried out at 4° C. Membranes containing CMP-Sia and GlpG were resuspended in PBS, 10 mM imidazole pH 8.0, 150 mM NaCl, 10% glycerol and solubilized in 1% DDM for 1 hour with mild agitation. Supernatant containing DDM-solubilized protein was harvested after ultracentrifugation at 100,000 g for 45 min. […]

SMILES	CMP-Sia integrity after incubation (gel filtration) [%]
CCCCCCCCCCCCO[C@@H]1O[C@H](CO)[C@@H](O[C@H]2O[C@H](CO)[C@@H](O)[C@H](O)[C@H]2O)[C@H](O)[C@H]1O [DDM, dodecyl-β-D-maltoside, reference compound]	~50
C[C@@H]1CC[C@@]2(OC1)O[C@H]1C[C@H]3[C@@H]4CC=C5C[C@@H](OCCC(CO[C@@H]6OC(CO)[C@@H](O[C@H]7OC(CO)[C@@H](O)C(O)C7O)C(O)C6O)CO[C@@H]6OC(CO)[C@@H](O[C@H]7OC(CO)[C@@H](O)C(O)C7O)C(O)C6O)CC[C@]5(C)[C@H]4CC[C@]3(C)[C@@H]1[C@@H]2C (some centres unmarked) [GDN, glyco-diosgenin]	> 90
